Experimental data as given in patent publication US20250339408A1, “TREATMENT AND PREVENTION OF BASAL CELL CARCINOMA WITH TOPICAL COMPOSITION COMPRISING PATIDEGIB” (Sol-Gel Technologies Ltd., priority 2023, published 2025).

Tested on: basal cell carcinoma (BCC) lesions on the face
Experiment: Randomized, double-blind, vehicle-controlled study of Patidegib Topical Gel, 2% in Gorlin syndrome participants with PTCH1 mutation (Example 2)
Type: in vivo, human
Source text: The term “nSEB” refers to BCCs with a longest diameter of ≥5 mm that: • a. were not surgically eligible BCCs (SEBs) at baseline; • b. have grown by ≥2 mm in longest diameter from baseline; and • c. have been verified histologically.
The term “SEB” refers to surgically eligible BCCs with a longest diameter of ≥5 mm.
The term “resolved SEB lesions” refers to BCCs lesions which no longer requires a surgical removal treatment. In another embodiment the term “resolved SEB lesions” refers to BCCs lesions with a diameter <5 mm or the BCC lesions are completely disappeared.
A randomized, double-blind, stratified, vehicle-controlled study was done, measuring the efficacy and safety of Patidegib Topical Gel, 2%, applied topically twice daily to the face of adult participants with Gorlin syndrome. The Participants were required to apply the investigational product for 12 months. The primary endpoint is a comparison between the two treatment—Patidegib Topical Gel, 2%, versus Vehicle, resulted the of the number of new BCCs that develop over the 12 month period.
Participants will be randomized to receive Patidegib Topical Gel, 2%. The Patidegib Topical Gel, 2% will be dispensed to participants at each study visit and applied topically twice daily to the face.
Participants will be randomized to receive Vehicle. The Patidegib Topical Gel, Vehicle will be dispensed to participants at each study visit and applied topically twice daily to the face.
• 1. The participant must be age at least 18 years of age at the Screening Visit. • 2. The participant must provide written informed consent prior to any study procedures. • 3. The participant must meet diagnostic criteria for the basal cell nevus (Gorlin) syndrome including PTCH1 gene mutation, or at least 6 histologically confirmed facial BCC lesions at Baseline and PTCH1 gene mutation. • 4. The participant is willing to have blood collected to measure circulating drug levels. • 5. The participant is willing to abstain from application of a non-study topical medication (prescription or over the counter) to facial skin for the duration of the trial except as prescribed by the Investigator. Moisturizers and emollients are allowed. Participant will be encouraged to use their preferred sunscreen with a sun protector factor (SPF) of at least 30 daily on all exposed skin sites. • 6. If the participant is a woman of childbearing potential (WOCBP), they must be willing to use complete abstinence from sexual intercourse and/or they and their partner must be willing to use at least 2 highly-effective forms of birth control starting prior to Baseline, through the duration of the study, and for 12 months after last application of IP. • 7. If the participant is a male with a female sex partner who is a WOCBP, the participant must be willing to use condoms, even after a vasectomy, starting prior to Baseline, through the duration of the study, and for at least 8 months after the last application of IP. • 8. The participant is willing for all facial BCCs to be evaluated and treatment recommendations made only by the Investigator. • 9. The participant is willing to forego treatment of facial BCCs with anything other than the study IP except when the Investigator believes that delay of treatment of a facial BCC potentially might compromise the health of the subject. During the trial the only allowed form of treatment is surgical. Non-facial BCCs may be removed at the discretion of the Investigator or Primary Skin Care Physician (PSCP).
• 1. The subject has previously participated in a clinical trial evaluating patidegib topical gel. • 2. The participant has used topical treatment to the face or systemic therapies that might interfere with the evaluation of the study IP. Among these are use of the following: • a. 5-fluorouracil, imiquimod, diclofenac, or Ingenol mebutate (except as topical treatment to discrete non-facial BCCs) systemically or topically to the skin within the 2 months prior to the Screening Visit. • b. […]

[1] = PTCH1 mutation, baseline total facial BCC lesions at least 6, gel 2% twice daily to face, month 3
[2] = PTCH1 mutation, baseline total facial BCC lesions at least 6, gel 2% twice daily to face, month 6
[3] = PTCH1 mutation, baseline total facial BCC lesions at least 6, gel 2% twice daily to face, month 9
[4] = PTCH1 mutation, baseline total facial BCC lesions at least 6, gel 2% twice daily to face, month 12
[5] = PTCH1 mutation, baseline total facial BCC lesions at least 8, gel 2% twice daily to face, month 3
[6] = PTCH1 mutation, baseline total facial BCC lesions at least 8, gel 2% twice daily to face, month 6
[7] = PTCH1 mutation, baseline total facial BCC lesions at least 8, gel 2% twice daily to face, month 9
[8] = PTCH1 mutation, baseline total facial BCC lesions at least 8, gel 2% twice daily to face, month 12
[9] = PTCH1 mutation, baseline total facial BCC lesions at least 10, gel 2% twice daily to face, month 3
[10] = PTCH1 mutation, baseline total facial BCC lesions at least 10, gel 2% twice daily to face, month 6
[11] = PTCH1 mutation, baseline total facial BCC lesions at least 10, gel 2% twice daily to face, month 9
[12] = PTCH1 mutation, baseline total facial BCC lesions at least 10, gel 2% twice daily to face, month 12
[13] = PTCH1 mutation, gel 2% twice daily to face
[14] = PTCH1 mutation, gel 2% twice daily to face, month 3
[15] = PTCH1 mutation, gel 2% twice daily to face, month 6
[16] = PTCH1 mutation, gel 2% twice daily to face, month 9
[17] = PTCH1 mutation, gel 2% twice daily to face, month 12
[18] = per subject, PTCH1 mutation, by month 12
[19] = per subject, more than 6 BCC lesions at baseline, Baseline to month 12

CC1=C2C[C@H]3[C@@H](CC[C@@H]4C[C@H](NS(C)(=O)=O)CC[C@@]43C)[C@@H]2CC[C@@]2(C1)O[C@@H]1C[C@H](C)CN[C@H]1[C@H]2C [Patidegib]
Overall efficacy in treating or preventing BCC lesions (in words) (Gorlin syndrome with genetic mutation PTCH1): effective in treating or preventing BCC lesions
Number of qualifying nSEBs, observed, Mean (PTCH1 mutation, baseline total BCC facial lesions at least 6, gel 2% twice daily to face, month 3): 0.28
Number of qualifying nSEBs, observed, Mean (PTCH1 mutation, baseline total BCC facial lesions at least 6, gel 2% twice daily to face, month 6): 0.42
Number of qualifying nSEBs, observed, Mean (PTCH1 mutation, baseline total BCC facial lesions at least 6, gel 2% twice daily to face, month 9): 0.83
Number of qualifying nSEBs, observed, Mean (PTCH1 mutation, baseline total BCC facial lesions at least 6, gel 2% twice daily to face, month 12): 0.47
Number of new BCCs excluding no longer suspicious BCCs, observed, Mean [1]: 0.80
Proportion of SEBs clinically resolved, observed, Mean [1]: 6.61
Number of new BCCs excluding no longer suspicious BCCs, observed, Mean [2]: 1.68
Proportion of SEBs clinically resolved, observed, Mean [2]: 3.11
Number of new BCCs excluding no longer suspicious BCCs, observed, Mean [3]: 2.49
Proportion of SEBs clinically resolved, observed, Mean [3]: 10.22
Number of new BCCs excluding no longer suspicious BCCs, observed, Mean [4]: 2.78
Proportion of SEBs clinically resolved, observed, Mean [4]: 18.79
Number of new BCCs excluding no longer suspicious BCCs, observed, Mean [5]: 0.94
Number of qualifying nSEBs, observed, Mean [5]: 0.31
Proportion of SEBs clinically resolved, observed, Mean [5]: 5.98
Number of new BCCs excluding no longer suspicious BCCs, observed, Mean [6]: 1.96
Number of qualifying nSEBs, observed, Mean [6]: 0.52
Proportion of SEBs clinically resolved, observed, Mean [6]: 1.30
Number of new BCCs excluding no longer suspicious BCCs, observed, Mean [7]: 2.71
Number of qualifying nSEBs, observed, Mean [7]: 0.96
Proportion of SEBs clinically resolved, observed, Mean [7]: 8.73
Number of new BCCs excluding no longer suspicious BCCs, observed, Mean [8]: 2.96
Number of qualifying nSEBs, observed, Mean [8]: 0.52
Proportion of SEBs clinically resolved, observed, Mean [8]: 12.84
Number of new BCCs excluding no longer suspicious BCCs, observed, Mean [9]: 1.00
Number of qualifying nSEBs, observed, Mean [9]: 0.41
Proportion of SEBs clinically resolved, observed, Mean [9]: 8.50
Number of new BCCs excluding no longer suspicious BCCs, observed, Mean [10]: 1.93
Number of qualifying nSEBs, observed, Mean [10]: 0.64
Proportion of SEBs clinically resolved, observed, Mean [10]: 2.05
Number of new BCCs excluding no longer suspicious BCCs, observed, Mean [11]: 2.56
Number of qualifying nSEBs, observed, Mean [11]: 1.00
Proportion of SEBs clinically resolved, observed, Mean [11]: 13.39
Number of new BCCs excluding no longer suspicious BCCs, observed, Mean [12]: 2.88
Number of qualifying nSEBs, observed, Mean [12]: 0.56
Proportion of SEBs clinically resolved, observed, Mean [12]: 16.89
LS Mean for new BCCs per year (Std Err) [13]: 2.83
Predicted new BCCs per year using observed covariates (95% CI) [13]: 3.09
Number of new BCCs excluding no longer suspicious BCCs, observed, Mean [14]: 0.69
Number of qualifying nSEBs, observed, Mean [14]: 0.21
Proportion of SEBs clinically resolved, observed, Mean [14]: 5.42
Number of new BCCs excluding no longer suspicious BCCs, observed, Mean [15]: 1.59
Number of qualifying nSEBs, observed, Mean [15]: 0.38
Proportion of SEBs clinically resolved, observed, Mean [15]: 2.76
Number of new BCCs excluding no longer suspicious BCCs, observed, Mean [16]: 2.17
Number of qualifying nSEBs, observed, Mean [16]: 0.70
Proportion of SEBs clinically resolved, observed, Mean [16]: 8.11
Number of new BCCs excluding no longer suspicious BCCs, observed, Mean [17]: 2.61
Number of qualifying nSEBs, observed, Mean [17]: 0.50
Proportion of SEBs clinically resolved, observed, Mean [17]: 14.68
Total new BCCs (all subjects of the arm, PTCH1 mutation, by month 12): 114
Total BCCs surgeries from Baseline to month 12 (all subjects of the arm, more than 6 BCC lesions at baseline): 14
Rate-ratio: Patidegib/Vehicle (Std Err) (new BCCs per year, PTCH1 mutation): 0.91
Number of new BCCs by Month 12 - Max [18]: 8
Number of new BCCs by Month 12 - Median [18]: 2.0
Number of new BCCs by Month 12 - Min [18]: 0
Number of new BCCs by Month 12 - Q1 [18]: 1.0
Number of new BCCs by Month 12 - Q3 [18]: 5.0
Number of new BCCs by Month 12 - Mean (SD) (per subject, PTCH1 mutation, gel 2% twice daily to face, by month 12): 3.08
Number of BCCs surgeries - Max [19]: 5
Number of BCCs surgeries - Median [19]: 0.0
Number of BCCs surgeries - Min [19]: 0
Number of BCCs surgeries - Q1 [19]: 0
Number of BCCs surgeries - Q3 [19]: 1
Number of BCCs surgeries - Mean (SD) (per subject, more than 6 BCC lesions at baseline, Baseline to month 12, gel 2% twice daily to face): 0.6 (1.47)
